Measured values published in patent US20260226073A1 (AURIGENE ONCOLOGY LIMITED, priority 2023, published 2026).

Key:
[1] = target: T1, human recombinant CBL-b (human Biotin CBL-b recombinant protein a.a. 39-426) (Homo sapiens, UniProt Q13191); test: Biochemical assay for CBL-b inhibition (ligand displacement TR-FRET); assay type: binding; conditions: 50 nM CBL-b, 0.3 μM Bodipy FL-Probe, read-out: IC50 (CBL-b inhibition, group)
T1 construct: human Biotin CBL-b recombinant protein a.a; 39-426; Biotin (biotinylated); made in house
T1 sequence (Q13191 39-426): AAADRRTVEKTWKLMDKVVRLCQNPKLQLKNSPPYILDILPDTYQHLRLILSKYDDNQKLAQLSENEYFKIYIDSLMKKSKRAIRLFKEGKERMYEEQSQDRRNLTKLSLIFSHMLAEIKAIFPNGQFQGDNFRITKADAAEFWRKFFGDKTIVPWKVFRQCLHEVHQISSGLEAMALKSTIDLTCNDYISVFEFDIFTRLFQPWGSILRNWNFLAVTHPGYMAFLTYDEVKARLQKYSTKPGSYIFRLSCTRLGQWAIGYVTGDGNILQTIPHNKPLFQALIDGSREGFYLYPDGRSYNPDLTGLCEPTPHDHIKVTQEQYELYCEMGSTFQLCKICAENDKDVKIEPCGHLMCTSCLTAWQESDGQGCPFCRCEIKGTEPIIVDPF
Summary of the method: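 Ligand-displacement TR-FRET: 0.3 μM Bodipy FL probe competes with compound for 50 nM biotin-CBL-b (aa 39-426) after a 60 min RT compound pre-incubation; terbium-streptavidin detection, 60 min each step. Dose-response sigmoidal fitting gave IC50 and % maximum inhibition.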

[2] = system: NFAT signaling pathway in Jurkat NFAT reporter cells; test: Jurkat NFAT reporter assay; assay type: cell-based; conditions: Homo sapiens, 30 min with compound, then soluble anti-human CD3/CD28 antibody for 6 hours, luciferase readout, read-out: EC50 (Group)
Summary of the method: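 Results are expressed as fold change relative to stimulated, inhibitor-free cells. Stimulation was 6 h with soluble anti-human CD3/CD28 antibody after a 30-min exposure of 1×10^5 NFAT-RE luciferase Jurkat reporter cells per well to the Cbl-b inhibitor; signal read by Bio-Glo bioluminescence.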

`CC(NCC1CC1)c1cc(Cl)nc(N2Cc3ccc(C4(Cc5nncn5C)CC(C#N)C4)cc3C2=O)c1` (stereo not drawn) [Compound 225, 3-(2-(6-Chloro-4-(1-((cyclopropylmethyl)amino)ethyl)pyridin-2-yl)-3-oxoiso-indolin-5-yl)-3-((4-methyl-4H-1,2,4-triazol-3-yl)methyl)cyclobutane-1-carbonitrile] was tested, and the IC50 [1] was < 80 nM and the EC50 [2] was < 300 nM.

For `Cn1cnnc1CC1(c2ccc3c(c2)C(=O)N(c2cc(CNCC4CC(F)(F)C4)cc(Cl)n2)C3)CC(C#N)C1` (stereo not drawn) [Compound 227, 3-(2-(6-Chloro-4-((((3,3-difluorocyclobutyl)methyl)amino)methyl)pyridin-2-yl)-3-oxoisoindolin-5-yl)-3-((4-methyl-4H-1,2,4-triazol-3-yl)methyl)cyclobutane-1-carbo-nitrile], the IC50 [1] was < 80 nM and the EC50 [2] was 300 to 1000 nM.

In the case of `Cn1cnnc1CC1(c2ccc3c(c2)C(=O)N(c2cc(CNCC4CC4(F)F)cc(Cl)n2)C3)CC(C#N)C1` (stereo not drawn) [Compound 230, 3-(2-(6-Chloro-4-((((2,2-difluorocyclopropyl)methyl)amino)methyl)pyridin-2-yl)-3-oxoisoindolin-5-yl)-3-((4-methyl-4H-1,2,4-triazol-3-yl)methyl)cyclobutane-1-carbonitrile], the IC50 [1] is reported as < 80 nM and the EC50 [2] is reported as 300 to 1000 nM.

With `Cn1cnnc1CC1(c2ccc3c(c2)C(=O)N(c2cc(CNc4nccs4)cc(Cl)n2)C3)COC1` [Compound 237] the IC50 [1] was < 80 nM and the EC50 [2] was 1000 to 10000 nM.

`CC(NC(C)(C)C1CC1)c1cc(Cl)nc(N2Cc3ccc(C4(Cc5nncn5C)COC4)cc3C2=O)c1` (stereo not drawn) [Compound 248] was tested, and the IC50 [1] was < 80 nM and the EC50 [2] was < 300 nM.

For `CCC(NC1CCCC1)c1cc(Cl)nc(N2Cc3ccc(C4(Cc5nncn5C)COC4)cc3C2=O)c1` (stereo not drawn) [Compound 251, 2-(6-Chloro-4-(1-(cyclopentylamino)propyl)pyridin-2-yl)-6-(3-((4-methyl-4H-1,2,4-triazol-3-yl)methyl)oxetan-3-yl)isoindolin-1-one], the IC50 [1] was < 80 nM and the EC50 [2] was < 300 nM.

For `COC1CCCC1NCc1cc(Cl)nc(N2Cc3ccc(C4(Cc5nncn5C)COC4)cc3C2=O)c1` (stereo not drawn) [Compound 253, 2-(6-Chloro-4-(((2-methoxycyclopentyl)amino)methyl)pyridin-2-yl)-6-(3-((4-methyl-4H-1,2,4-triazol-3-yl)methyl)oxetan-3-yl)isoindolin-1-one], the IC50 [1] was < 80 nM and the EC50 [2] was < 300 nM.

For `Cn1cnnc1CC1(c2ccc3c(c2)C(=O)N(c2cc(CNCC4CC4)cc(Cl)n2)C3)CC2(CCC2)C1` [Compound 255, 2-(6-Chloro-4-(((cyclopropylmethyl)amino)methyl)pyridin-2-yl)-6-(2-((4-methyl-4H-1,2,4-triazol-3-yl)methyl)spiro[3.3]heptan-2-yl)isoindolin-1-one], the IC50 [1] was < 80 nM and the EC50 [2] was 1000 to 10000 nM.

In the case of `Cc1cc(CNCC2CC2)cc(N2Cc3c(cc(-c4ccc(F)cc4-c4nncn4C)cc3C(F)(F)F)C2=O)n1` [Compound 256, 2-(4-(((Cyclopropylmethyl)amino)methyl)-6-methylpyridin-2-yl)-6-(4-fluoro-2-(4-methyl-4H-1,2,4-triazol-3-yl)phenyl)-4-(trifluoromethyl)isoindolin-1-one], the IC50 [1] is reported as < 80 nM and the EC50 [2] is reported as 1000 to 10000 nM.

In the case of `Cc1cc(CN2CCC3(CC3)C2)cc(N2Cc3ccc(-c4ccc(F)cc4-c4nncn4C)cc3C2=O)n1` [Compound 259], the IC50 [1] is reported as < 80 nM and the EC50 [2] is reported as 1000 to 10000 nM.

`Cc1cc(CNCC2CC(F)(F)C2)cc(N2Cc3ccc(-c4ccc(F)cc4-c4nncn4C)cc3C2=O)n1` [Compound 260, 2-(4-((((3,3-Difluorocyclobutyl)methyl)amino)methyl)-6-methylpyridin-2-yl)-6-(4-fluoro-2-(4-methyl-4H-1,2,4-triazol-3-yl)phenyl)isoindolin-1-one] was tested, and the IC50 [1] was < 80 nM and the EC50 [2] was < 300 nM.

For `Cc1nc(N2Cc3ccc(-c4ccc(F)cc4-c4nncn4C)cc3C2=O)cc(CNCC2CC2)c1F` [Compound 261, 2-(4-(((Cyclopropylmethyl)amino)methyl)-5-fluoro-6-methylpyridin-2-yl)-6-(4-fluoro-2-(4-methyl-4H-1,2,4-triazol-3-yl)phenyl)isoindolin-1-one], the IC50 [1] was < 80 nM and the EC50 [2] was 1000 to 10000 nM.

`Cc1cc(CNCC2CC2)cc(N2Cc3ccc(-c4c(F)cc(F)cc4-c4nncn4C)cc3C2=O)n1` [Compound 262] was tested, and the IC50 [1] was < 80 nM and the EC50 [2] was < 300 nM.

`Cc1cc(CNCC2CC2)cc(N2Cc3ccc(-c4ncc(Cl)cc4-c4nncn4C)cc3C2=O)n1` [Compound 263, 6-(5-Chloro-3-(4-methyl-4H-1,2,4-triazol-3-yl)pyridin-2-yl)-2-(4-(((cyclo-propylmethyl)amino)methyl)-6-methylpyridin-2-yl)isoindolin-1-one] was tested, and the IC50 [1] was < 80 nM and the EC50 [2] was 1000 to 10000 nM.

With `Cn1cnnc1-c1cc(F)ccc1-c1ccc2c(c1)C(=O)N(c1cc(CNCC3CC3)cc(C(F)(F)F)n1)C2` [Compound 265, 2-(4-(((Cyclopropylmethyl)amino)methyl)-6-(trifluoromethyl)pyridin-2-yl)-6-(4-fluoro-2-(4-methyl-4H-1,2,4-triazol-3-yl)phenyl)isoindolin-1-one] the IC50 [1] was < 80 nM and the EC50 [2] was < 300 nM.

For `Cc1cc(CNCC2CC2(F)F)cc(N2Cc3ccc(-c4ccc(Cl)cc4-c4nncn4C)cc3C2=O)n1` (stereo not drawn) [Compound 269], the IC50 [1] was < 80 nM and the EC50 [2] was 300 to 1000 nM.

`COc1ccc(-c2ccc3c(c2)C(=O)N(c2cc(CNCC4CC4)cc(C)n2)C3)c(-c2nncn2C)c1` [Compound 273, 2-(4-(((Cyclopropylmethyl)amino)methyl)-6-methylpyridin-2-yl)-6-(4-methoxy-2-(4-methyl-4H-1,2,4-triazol-3-yl)phenyl)isoindolin-1-one] was tested, and the IC50 [1] was < 80 nM and the EC50 [2] was 1000 to 10000 nM.

For `Cc1cc(CNCC2CCC2)cc(N2Cc3ccc(-c4ccc(Cl)cc4-c4nncn4C)cc3C2=O)n1` [Compound 274, 6-(4-Chloro-2-(4-methyl-4H-1,2,4-triazol-3-yl)phenyl)-2-(4-(((cyclobutyl-methyl)amino)methyl)-6-methylpyridin-2-yl)isoindolin-1-one], the IC50 [1] was < 80 nM and the EC50 [2] was < 300 nM.

For `Cn1cnnc1-c1cc(Cl)ccc1-c1ccc2c(c1)C(=O)N(c1cc(C(C)(C)NCC3CC3)cc(Cl)n1)C2` [Compound 275, 6-(4-Chloro-2-(4-methyl-4H-1,2,4-triazol-3-yl)phenyl)-2-(6-chloro-4-(2-((cyclopropylmethyl)amino)propan-2-yl)pyridin-2-yl)isoindolin-1-one], the IC50 [1] was < 80 nM and the EC50 [2] was < 300 nM.

With `Cc1ccc(-c2ccc3c(c2)C(=O)N(c2cc(CNCC4CC4)cc(C)n2)C3)c(-c2nncn2C)c1` [Compound 277, 2-(4-(((Cyclopropylmethyl)amino)methyl)-6-methylpyridin-2-yl)-6-(4-methyl-2-(4-methyl-4H-1,2,4-triazol-3-yl)phenyl)isoindolin-1-one] the IC50 [1] was < 80 nM and the EC50 [2] was 1000 to 10000 nM.

In the case of `Cc1cc(C(C)NCC2CCC2)cc(N2Cc3ccc(-c4ccc(Cl)cc4-c4nncn4C)cc3C2=O)n1` (stereo not drawn) [Compound 278, 6-(4-Chloro-2-(4-methyl-4H-1,2,4-triazol-3-yl)phenyl)-2-(4-(1-((cyclobutyl-methyl)amino)ethyl)-6-methylpyridin-2-yl)isoindolin-1-one], the IC50 [1] is reported as < 80 nM and the EC50 [2] is reported as < 300 nM.

With `Cc1cc(CNCC2CC(F)(F)C2)cc(N2Cc3ccc(-c4ccc(Cl)cc4-c4nncn4C)cc3C2=O)n1` [Compound 279, 6-(4-Chloro-2-(4-methyl-4H-1,2,4-triazol-3-yl)phenyl)-2-(4-((((3,3-difluoro-cyclobutyl)methyl)amino)methyl)-6-methylpyridin-2-yl)isoindolin-1-one] the IC50 [1] was < 80 nM and the EC50 [2] was < 300 nM.

In the case of `Cc1cc(CNCC2CC2)cc(N2Cc3ccc(-c4ccc(Cl)cc4-c4nncn4C)cc3C2=O)c1` [Compound 280, 6-(4-Chloro-2-(4-methyl-4H-1,2,4-triazol-3-yl)phenyl)-2-(3-(((cyclopropyl-methyl)amino)methyl)-5-methylphenyl)isoindolin-1-one], the IC50 [1] is reported as < 80 nM and the EC50 [2] is reported as 300 to 1000 nM.

For `Cc1cc(C(C)NCC2CC(F)(F)C2)cc(N2Cc3ccc(-c4ccc(Cl)cc4-c4nncn4C)cc3C2=O)n1` (stereo not drawn) [Compound 281, 6-(4-Chloro-2-(4-methyl-4H-1,2,4-triazol-3-yl)phenyl)-2-(4-(1-(((3,3-difluoro-cyclobutyl)methyl)amino)ethyl)-6-methylpyridin-2-yl)isoindolin-1-one], the IC50 [1] was < 80 nM and the EC50 [2] was < 300 nM.

`Cc1cc(C(C)NCC2CC2)cc(N2Cc3ccc(-c4ccc(F)cc4-c4nncn4C)cc3C2=O)n1` (stereo not drawn) [Compound 282, 2-(4-(1-((Cyclopropylmethyl)amino)ethyl)-6-methylpyridin-2-yl)-6-(4-fluoro-2-(4-methyl-4H-1,2,4-triazol-3-yl)phenyl)isoindolin-1-one] was tested, and the IC50 [1] was < 80 nM and the EC50 [2] was < 300 nM.

`Cc1cc(C(C)(C)NCC2CC2)cc(N2Cc3ccc(-c4ccc(F)cc4-c4nncn4C)cc3C2=O)n1` [Compound 293, 2-(4-(2-((Cyclopropylmethyl)amino)propan-2-yl)-6-methylpyridin-2-yl)-6-(4-fluoro-2-(4-methyl-4H-1,2,4-triazol-3-yl)phenyl)isoindolin-1-one] was tested, and the IC50 [1] was < 80 nM and the EC50 [2] was 300 to 1000 nM.

In the case of `CCn1cnnc1-c1cc(F)ccc1-c1ccc2c(c1)C(=O)N(c1cc(CNCC3CC3)cc(C)n1)C2` [Compound 294, 2-(4-(((Cyclopropylmethyl)amino)methyl)-6-methylpyridin-2-yl)-6-(2-(4-ethyl-4H-1,2,4-triazol-3-yl)-4-fluorophenyl)isoindolin-1-one], the IC50 [1] is reported as < 80 nM and the EC50 [2] is reported as 1000 to 10000 nM.
